In PubChem BioAssay (NCI):
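Results reflect a 48-hour exposure of cells in 96-well plates to compound at five concentrations. GI50 marks 50% less growth. TGI denotes the concentration required for complete inhibition of growth.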

Assays:
Experiment in all cases: NCI-60 cell line screen, 48 h
SF-539 CNS = system: SF-539 CNS
COLO 205 colon = system: COLO 205 colon
UO-31 renal = system: UO-31 renal
MDA-MB-231 breast = system: MDA-MB-231 breast
SNB-19 CNS = system: SNB-19 CNS
HOP-92 NSCLC = system: HOP-92 NSCLC
OVCAR-5 ovarian = system: OVCAR-5 ovarian
UACC-62 melanoma = system: UACC-62 melanoma
ACHN renal = system: ACHN renal
HL-60(TB) leukemia = system: HL-60(TB) leukemia

SMILES | TGI (SF-539 CNS) [µM] | TGI (COLO 205 colon) [µM] | TGI (UO-31 renal) [µM] | TGI (MDA-MB-231 breast) [µM] | TGI (SNB-19 CNS) [µM] | TGI (HOP-92 NSCLC) [µM] | TGI (OVCAR-5 ovarian) [µM] | TGI (UACC-62 melanoma) [µM] | TGI (ACHN renal) [µM] | TGI (HL-60(TB) leukemia) [µM] | GI50 (COLO 205 colon) [nM] | GI50 (MDA-MB-231 breast) [nM] | GI50 (SNB-19 CNS) [nM] | GI50 (HOP-92 NSCLC) [nM] | GI50 (HL-60(TB) leukemia) [nM] | GI50 (OVCAR-5 ovarian) [nM] | GI50 (UACC-62 melanoma) [nM] | GI50 (ACHN renal) [nM]
CC(C)(C)OC(=O)CC(NC(=O)OC(C)(C)C)C(=O)Oc1ccc([N+](=O)[O-])cc1 (stereo not drawn) | > 100 | > 100 | > 100 | > 100 | > 100 | > 100 | > 100 | 65.9 | > 100 | – | – | – | – | – | – | – | – | –
CC(=O)Oc1ccc2c3c1[C@@H]1O[C@@H]1c1cccc(c1-3)[C@@H]1O[C@H]21 | – | 4.36 | 2.91 | 3.64 | 23.1 | – | 3.42 | 3.44 | 3.74 | 4.87 | – | – | – | – | – | – | – | –
CCCC(=O)OC1=C(c2ccccc2)Sc2ccccc2-n2cccc21 | – | > 10 | – | > 10 | – | > 10 | – | > 10 | – | > 10 | – | – | – | – | – | – | – | –
NC(=O)N=Nc1c2ccccc2n2[nH]ccc12 | > 100 | > 100 | – | > 100 | > 100 | > 100 | > 100 | > 100 | > 100 | 58.1 | – | – | – | – | – | – | – | –
C=C(C)COC(=O)COCC(=O)OCC(=C)C | – | > 100 | > 100 | > 100 | > 100 | > 100 | > 100 | > 100 | > 100 | – | – | – | – | – | – | – | – | –
COc1cc2c(cc1O)N=C[C@@H]1CCC(O)N1C2=O (mixture of isomers) | 1.83 | 1.93 | 2.79 | – | 147 | 2.46 | 18.8 | 1.5 | – | 11.1 | – | – | – | – | – | – | – | –
C/C=C1/C(=O)O[C@]23C=C[C@@H]4C(C(=O)OC)=CO[C@H](O[C@@H]12)[C@@H]43 | 7.39 | 3.29 | 6.98 | – | 10.3 | 3.74 | 7.69 | 2.89 | – | 3.06 | – | – | – | – | – | – | – | –
CC(CNc1nc(Nc2ccc(Cl)c(Cl)c2)nc(C(Cl)(Cl)Cl)n1)N(C)C (stereo not drawn) | – | 3.39 | – | 1.42 | 3.18 | 4.16 | 3.2 | 3.11 | 2.94 | 3.54 | 1830 | 307 | 1710 | 1350 | 1690 | 1610 | 1710 | 1560
CC(=O)Oc1cc2c(n(C)c1=O)CCC2 | > 100 | > 100 | > 100 | > 100 | > 100 | > 100 | > 100 | – | > 100 | > 100 | – | – | – | – | – | – | – | –
CC1CC(c2ccc([N+](=O)[O-])cc2)=Nc2ccccc2S1=O (stereo not drawn) | 45 | 33.5 | 26.3 | – | 38.5 | > 100 | 70 | 38.8 | 40.6 | 50.5 | – | – | – | – | – | – | – | –
C1COCCOP2(N3CC3)=NP(N3CC3)(=NP(N3CC3)(N3CC3)=N2)OCCOCCO1 (stereo not drawn) | > 100 | > 100 | > 100 | > 100 | > 100 | – | > 100 | > 100 | > 100 | > 100 | – | – | – | – | – | – | – | –
